Reference: paper PMC11137104, “Small molecule induced STING degradation facilitated by the HECT ligase HERC4” (Nature Communications, 2024)

Tests used:
Assay in all cases: NanoBiT complementation of STING and HERC4 in HEK293T; also co-immunoprecipitation
Type in all cases: cell-based
[1] = biological target: T1, STING^141-341-LgBiT : SmBiT-HERC4 (Homo sapiens, UniProt Q5GLZ8+Q86WV6); details: compound-induced STING-HERC4 association; dose-response, 16 h; binding site and direct binary binding not determined
T1 construct: gene STING1; STING cytosolic domain with connector helix (141-341), C-terminal LgBiT; full-length HERC4, N-terminal SmBiT; transient in HEK293T

[2] = biological target: T2, STING^141-341-LgBiT : SmBiT-HERC4 (Homo sapiens, UniProt Q5GLZ8+Q86WV6, Q86WV6:K150R); details: compound-induced STING-HERC4 association; dose-response, 16 h; binding site and direct binary binding not determined
T2 construct: gene STING1; STING cytosolic domain with connector helix (141-341), C-terminal LgBiT; full-length HERC4, N-terminal SmBiT; transient in HEK293T

[3] = biological target: T3, STING^155-341-LgBiT : SmBiT-HERC4 (Homo sapiens, UniProt Q5GLZ8+Q86WV6); details: compound-induced STING-HERC4 association; 16 h; binding site and direct binary binding not determined
T3 construct: gene STING1; full-length HERC4, N-terminal SmBiT; transient in HEK293T
T3 sequence (Q86WV6 155-341): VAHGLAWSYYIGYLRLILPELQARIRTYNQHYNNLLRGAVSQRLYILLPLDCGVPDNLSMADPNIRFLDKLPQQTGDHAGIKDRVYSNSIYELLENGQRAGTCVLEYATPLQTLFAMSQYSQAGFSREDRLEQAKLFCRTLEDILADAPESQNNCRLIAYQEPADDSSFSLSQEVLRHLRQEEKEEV
T3 sequence (Q5GLZ8 whole entry): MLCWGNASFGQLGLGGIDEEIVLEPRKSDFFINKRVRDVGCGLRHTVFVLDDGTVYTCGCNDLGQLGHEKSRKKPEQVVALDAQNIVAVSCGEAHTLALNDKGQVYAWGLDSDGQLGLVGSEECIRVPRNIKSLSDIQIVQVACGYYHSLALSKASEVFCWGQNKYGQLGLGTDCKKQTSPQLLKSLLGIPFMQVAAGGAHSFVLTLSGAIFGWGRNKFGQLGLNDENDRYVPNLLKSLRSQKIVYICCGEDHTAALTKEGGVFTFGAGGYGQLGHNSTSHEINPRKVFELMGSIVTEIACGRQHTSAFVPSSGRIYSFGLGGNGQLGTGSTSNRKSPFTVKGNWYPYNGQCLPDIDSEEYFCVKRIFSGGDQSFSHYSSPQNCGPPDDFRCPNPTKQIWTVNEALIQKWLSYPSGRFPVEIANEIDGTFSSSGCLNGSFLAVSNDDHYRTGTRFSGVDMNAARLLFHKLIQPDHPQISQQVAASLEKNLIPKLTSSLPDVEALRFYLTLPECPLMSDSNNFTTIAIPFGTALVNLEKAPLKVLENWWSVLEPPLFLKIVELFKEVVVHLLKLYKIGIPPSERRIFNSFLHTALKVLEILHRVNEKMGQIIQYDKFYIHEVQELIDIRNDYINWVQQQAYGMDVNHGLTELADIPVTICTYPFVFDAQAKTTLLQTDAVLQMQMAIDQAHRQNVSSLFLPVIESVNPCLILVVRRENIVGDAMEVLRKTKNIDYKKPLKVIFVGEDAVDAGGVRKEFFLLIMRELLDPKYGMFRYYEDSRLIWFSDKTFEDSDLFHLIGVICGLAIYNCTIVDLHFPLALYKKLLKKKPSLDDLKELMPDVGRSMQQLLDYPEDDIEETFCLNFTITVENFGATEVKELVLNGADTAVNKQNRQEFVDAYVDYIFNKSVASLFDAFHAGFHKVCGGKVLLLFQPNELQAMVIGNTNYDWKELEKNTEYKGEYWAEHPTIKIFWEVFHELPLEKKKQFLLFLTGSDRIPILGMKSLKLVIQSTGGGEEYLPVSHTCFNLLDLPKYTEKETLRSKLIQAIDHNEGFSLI

T2 sequence (Q86WV6 141-341 K150R): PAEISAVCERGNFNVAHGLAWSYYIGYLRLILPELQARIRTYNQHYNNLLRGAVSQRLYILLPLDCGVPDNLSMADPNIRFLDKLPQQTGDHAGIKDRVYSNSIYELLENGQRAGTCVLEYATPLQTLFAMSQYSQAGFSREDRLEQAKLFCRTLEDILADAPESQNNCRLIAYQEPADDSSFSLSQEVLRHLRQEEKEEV
T2 sequence (Q5GLZ8 whole entry, the tested form may be a part): as the sequence (Q5GLZ8 whole entry) above
T1 sequence (Q86WV6 141-341): as the sequence (Q86WV6 141-341 K150R) above, with R10K counted along it
T1 sequence (Q5GLZ8 whole entry, the tested form may be a part): as the sequence (Q5GLZ8 whole entry) above

Structure (SMILES): O=S(=O)(Nc1ccc(-c2cccnc2)c2cccnc12)c1ccc(C(F)(F)F)cc1 [AK59, AK59-51TB]
- NanoBiT complementation of STING and HERC4 in HEK293T; also co-immunoprecipitati [1]: only AK59, but not the inactive analog QK50, is capable of inducing an interaction
- NanoBiT complementation of STING and HERC4 in HEK293T; also co-immunoprecipitati [2]: all constructs showed a luminescence signal indicating a direct interaction with HERC4 upon AK59
- NanoBiT complementation of STING and HERC4 in HEK293T; also co-immunoprecipitati [3]: all constructs showed a luminescence signal indicating a direct interaction with HERC4 upon AK59
